Reference: PubChem BioAssay (NCI)
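Protocol summary: plate cells (96-well), add compound at 5 concentrations, incubate 48 h, interpolate endpoints linearly. The concentration for full growth arrest is given as TGI.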

Tests used:
Experiment in all cases: NCI-60 cell line screen, 48 h
SF-295 CNS = test system: SF-295 CNS
SK-MEL-2 melanoma = test system: SK-MEL-2 melanoma
MALME-3M melanoma = test system: MALME-3M melanoma
U251 CNS = test system: U251 CNS
SK-MEL-28 melanoma = test system: SK-MEL-28 melanoma
T-47D breast = test system: T-47D breast
K-562 leukemia = test system: K-562 leukemia
A498 renal = test system: A498 renal
SK-MEL-5 melanoma = test system: SK-MEL-5 melanoma
LOX IMVI melanoma = test system: LOX IMVI melanoma
PC-3 prostate = test system: PC-3 prostate
SF-268 CNS = test system: SF-268 CNS
OVCAR-8 ovarian = test system: OVCAR-8 ovarian
UACC-62 melanoma = test system: UACC-62 melanoma
MDA-N = test system: MDA-N
SF-539 CNS = test system: SF-539 CNS
OVCAR-4 ovarian = test system: OVCAR-4 ovarian
MCF7 breast = test system: MCF7 breast
MDA-MB-435 = test system: MDA-MB-435
RPMI-8226 leukemia = test system: RPMI-8226 leukemia
A549 NSCLC = test system: A549 NSCLC
UACC-257 melanoma = test system: UACC-257 melanoma
MDA-MB-231 breast = test system: MDA-MB-231 breast
HOP-92 NSCLC = test system: HOP-92 NSCLC
IGROV1 ovarian = test system: IGROV1 ovarian
UO-31 renal = test system: UO-31 renal
HT29 colon = test system: HT29 colon
M14 melanoma = test system: M14 melanoma
HL-60(TB) leukemia = test system: HL-60(TB) leukemia
OVCAR-3 ovarian = test system: OVCAR-3 ovarian
RXF 393 renal = test system: RXF 393 renal
OVCAR-5 ovarian = test system: OVCAR-5 ovarian
CAKI-1 renal = test system: CAKI-1 renal
NCI-H23 lung = test system: NCI-H23 lung
NCI-H226 lung = test system: NCI-H226 lung
NCI-H460 lung = test system: NCI-H460 lung
CCRF-CEM leukemia = test system: CCRF-CEM leukemia
MOLT-4 leukemia = test system: MOLT-4 leukemia
DU-145 prostate = test system: DU-145 prostate
NCI/ADR-RES ovarian = test system: NCI/ADR-RES ovarian
ACHN renal = test system: ACHN renal
786-0 renal = test system: 786-0 renal
KM12 colon = test system: KM12 colon
HCC-2998 colon = test system: HCC-2998 colon
HCT-15 colon = test system: HCT-15 colon
SNB-19 CNS = test system: SNB-19 CNS
SW-620 colon = test system: SW-620 colon
COLO 205 colon = test system: COLO 205 colon
HOP-62 NSCLC = test system: HOP-62 NSCLC
SR leukemia = test system: SR leukemia
EKVX NSCLC = test system: EKVX NSCLC
SNB-75 CNS = test system: SNB-75 CNS
SK-OV-3 ovarian = test system: SK-OV-3 ovarian
NCI-H522 lung = test system: NCI-H522 lung
TK-10 renal = test system: TK-10 renal
SN12C renal = test system: SN12C renal
HCT-116 colon = test system: HCT-116 colon

SMILES: Cc1ccc(S(=O)(=O)n2c3c(c4ccccc42)CCN2C[C@H]([C@H](C)Br)CC[C@@H]32)cc1
- TGI (SF-295 CNS): > 100 µM
- TGI (SK-MEL-2 melanoma): > 100 µM
- TGI (MALME-3M melanoma): > 100 µM
- TGI (U251 CNS): > 100 µM
- TGI (SK-MEL-28 melanoma): > 100 µM
- TGI (T-47D breast): > 100 µM
- TGI (K-562 leukemia): > 100 µM
- TGI (A498 renal): > 100 µM
- TGI (SK-MEL-5 melanoma): > 100 µM
- TGI (LOX IMVI melanoma): > 100 µM
- TGI (PC-3 prostate): > 100 µM
- TGI (SF-268 CNS): > 100 µM
- TGI (OVCAR-8 ovarian): > 100 µM
- TGI (UACC-62 melanoma): > 100 µM
- TGI (MDA-N): > 100 µM
- TGI (SF-539 CNS): > 100 µM
- TGI (OVCAR-4 ovarian): > 100 µM
- TGI (MCF7 breast): > 100 µM
- TGI (MDA-MB-435): > 100 µM
- TGI (RPMI-8226 leukemia): > 100 µM
- TGI (A549 NSCLC): > 100 µM
- TGI (UACC-257 melanoma): > 100 µM
- TGI (MDA-MB-231 breast): > 100 µM
- TGI (HOP-92 NSCLC): > 100 µM
- TGI (IGROV1 ovarian): > 100 µM
- TGI (UO-31 renal): > 100 µM
- TGI (HT29 colon): > 100 µM
- TGI (M14 melanoma): > 100 µM
- TGI (HL-60(TB) leukemia): > 100 µM
- TGI (OVCAR-3 ovarian): > 100 µM
- TGI (RXF 393 renal): > 100 µM
- TGI (OVCAR-5 ovarian): > 100 µM
- TGI (CAKI-1 renal): > 100 µM
- TGI (NCI-H23 lung): > 100 µM
- TGI (NCI-H226 lung): > 100 µM
- TGI (NCI-H460 lung): > 100 µM
- TGI (CCRF-CEM leukemia): > 100 µM
- TGI (MOLT-4 leukemia): > 100 µM
- TGI (DU-145 prostate): > 100 µM
- TGI (NCI/ADR-RES ovarian): > 100 µM
- TGI (ACHN renal): > 100 µM
- TGI (786-0 renal): > 100 µM
- TGI (KM12 colon): > 100 µM
- TGI (HCC-2998 colon): > 100 µM
- TGI (HCT-15 colon): > 100 µM
- TGI (SNB-19 CNS): > 100 µM
- TGI (SW-620 colon): > 100 µM
- TGI (COLO 205 colon): > 100 µM
- TGI (HOP-62 NSCLC): > 100 µM
- TGI (SR leukemia): > 100 µM
- TGI (EKVX NSCLC): > 100 µM
- TGI (SNB-75 CNS): > 100 µM
- TGI (SK-OV-3 ovarian): > 100 µM
- TGI (NCI-H522 lung): > 100 µM
- TGI (TK-10 renal): > 100 µM

SMILES: CC1OC(c2ccc3c(OCc4ccccc4)cccc3c2O)CC(OCc2ccccc2)[C@H]1OCc1ccccc1 (stereo partly specified)
- TGI (SF-295 CNS): > 10 µM
- TGI (MALME-3M melanoma): > 10 µM
- TGI (SK-MEL-28 melanoma): > 10 µM
- TGI (T-47D breast): > 10 µM
- TGI (K-562 leukemia): > 10 µM
- TGI (SK-MEL-5 melanoma): > 10 µM
- TGI (PC-3 prostate): > 10 µM
- TGI (SF-268 CNS): > 10 µM
- TGI (OVCAR-8 ovarian): > 10 µM
- TGI (UACC-62 melanoma): > 10 µM
- TGI (MDA-N): > 10 µM
- TGI (MCF7 breast): > 10 µM
- TGI (RPMI-8226 leukemia): > 10 µM
- TGI (A549 NSCLC): > 10 µM
- TGI (UACC-257 melanoma): > 10 µM
- TGI (MDA-MB-231 breast): > 10 µM
- TGI (IGROV1 ovarian): > 10 µM
- TGI (SN12C renal): > 10 µM
- TGI (HT29 colon): > 10 µM
- TGI (M14 melanoma): > 10 µM
- TGI (HL-60(TB) leukemia): > 10 µM
- TGI (RXF 393 renal): > 10 µM
- TGI (CAKI-1 renal): > 10 µM
- TGI (NCI-H23 lung): > 10 µM
- TGI (CCRF-CEM leukemia): > 10 µM
- TGI (MOLT-4 leukemia): > 10 µM
- TGI (DU-145 prostate): > 10 µM
- TGI (786-0 renal): > 10 µM
- TGI (KM12 colon): > 10 µM
- TGI (HCC-2998 colon): > 10 µM
- TGI (HCT-15 colon): > 10 µM
- TGI (SW-620 colon): > 10 µM
- TGI (COLO 205 colon): > 10 µM
- TGI (HOP-62 NSCLC): > 10 µM
- TGI (EKVX NSCLC): > 10 µM
- TGI (SNB-75 CNS): > 10 µM
- TGI (SK-OV-3 ovarian): > 10 µM
- TGI (TK-10 renal): > 10 µM

SMILES: COc1ccc2/c(=C/c3ccc(N(C)C)cc3)c3cc(-c4ccccc4)[n+](C)n3c2c1
- TGI (SF-295 CNS): 2.51 µM
- TGI (MALME-3M melanoma): 0.579 µM
- TGI (U251 CNS): 1.27 µM
- TGI (T-47D breast): 2.77 µM
- TGI (K-562 leukemia): 1.15 µM
- TGI (SK-MEL-5 melanoma): 0.292 µM
- TGI (PC-3 prostate): 0.543 µM
- TGI (SF-268 CNS): 1.19 µM
- TGI (OVCAR-8 ovarian): 0.731 µM
- TGI (MDA-N): 0.475 µM
- TGI (OVCAR-4 ovarian): 4.19 µM
- TGI (RPMI-8226 leukemia): 0.912 µM
- TGI (UACC-257 melanoma): 0.888 µM
- TGI (MDA-MB-231 breast): 1.66 µM
- TGI (SN12C renal): 1.6 µM
- TGI (UO-31 renal): 5.2 µM
- TGI (HT29 colon): 0.624 µM
- TGI (M14 melanoma): 1.16 µM
- TGI (HL-60(TB) leukemia): 0.106 µM
- TGI (HCT-116 colon): 1.37 µM
- TGI (OVCAR-5 ovarian): 1.44 µM
- TGI (CAKI-1 renal): 7.77 µM
- TGI (NCI-H460 lung): 3.56 µM
- TGI (CCRF-CEM leukemia): 5.37 µM
- TGI (MOLT-4 leukemia): 0.931 µM
- TGI (DU-145 prostate): 1.77 µM
- TGI (NCI/ADR-RES ovarian): > 100 µM
- TGI (ACHN renal): 2.39 µM
- TGI (KM12 colon): 1.99 µM
- TGI (HCC-2998 colon): 1.08 µM
- TGI (HCT-15 colon): 3.28 µM
- TGI (SNB-19 CNS): 2.2 µM
- TGI (SW-620 colon): 1.47 µM
- TGI (COLO 205 colon): 0.236 µM
- TGI (HOP-62 NSCLC): 2.63 µM
- TGI (SR leukemia): 0.962 µM
- TGI (SK-OV-3 ovarian): 1.68 µM
- TGI (TK-10 renal): 1.43 µM
